# From patent US10947252B2, “Inhibitors of KEAP1-Nrf2 protein-protein interaction” (Janssen Pharmaceutica NV, priority 2018, dated 2021)
# What was measured:
# [1] = test system: Glo-Response ARE-luc2P HEK293 cell line; assay: ARE luciferase reporter cell-based assay; details: Homo sapiens, HEK293, 24 h, average of results obtained;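 also: luciferase signal tracks Nrf2 activation of the ARE once compounds disrupt KEAP1-Nrf2 binding, read with One-Glo reagent, DMSO serving as low control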
# [2] = biological target: Kelch domain of human KEAP1 (321-624 aa) (Homo sapiens (Human), UniProt Q14145); assay: KEAP1 KELCH ThermoFluor binding assay; details: KEAP Kelch […], 1,8-ANS, pH 7.0, average of results obtained, read-out: Tf Kd;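 also: Ligand-induced melting temperature shift of E. coli-expressed KEAP1 Kelch protein, Kd estimated from concentration-response curves of ΔTm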
# Sequence of Kelch domain of human KEAP1 (321-624 aa) (Q14145 321-624): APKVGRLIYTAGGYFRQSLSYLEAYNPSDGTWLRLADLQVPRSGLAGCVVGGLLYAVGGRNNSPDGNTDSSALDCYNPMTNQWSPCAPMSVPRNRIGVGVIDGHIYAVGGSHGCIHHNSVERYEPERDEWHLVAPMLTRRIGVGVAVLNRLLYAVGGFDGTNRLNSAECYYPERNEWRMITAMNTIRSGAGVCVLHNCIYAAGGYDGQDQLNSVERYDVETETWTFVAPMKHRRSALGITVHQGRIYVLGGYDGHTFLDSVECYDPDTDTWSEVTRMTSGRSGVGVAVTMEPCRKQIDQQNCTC
Structure (SMILES),EC50 [1] [nM],Kd [2] [nM]
"Cc1ccc([C@@H](c2ccc3c(nnn3CC3CC3)c2C)C(C)(C)C(=O)O)nc1CN1CC2(CCOCC2)Oc2nc(OCCN3CCOCC3)ccc2S1(=O)=O (single isomer, unassigned) [Example 328, (*S)-3-(1-(Cyclopropylmethyl)-4-methyl-1H-benzo[d][1,2,3]triazol-5-yl)-2,2-dimethyl-3-(5-methyl-6-((7′-(2-morpholinoethoxy)-1′,1′-dioxido-2,3,5,6-tetrahydrospiro[pyran-4,4′-pyrido[2,3-b][1,4,5]oxathiazepin]-2′(3′H)-yl)methyl)pyridin-2-yl)propanoic Acid]",3.3,< 1
"Cc1cnc2c(c1)S(=O)(=O)N(Cc1cc([C@@H](c3ccn4c(C(F)(F)F)nnc4c3)C(C)(C)C(=O)O)ccc1C)CC1(CC1)O2 (single isomer, unassigned) [Example 323, (*S)-2,2-Dimethyl-3-(4-methyl-3-((8′-methyl-1′,1′-dioxidospiro[cyclopropane-1,4′-pyrido[2,3-b][1,4,5]oxathiazepin]-2′(3′H)-yl)methyl)phenyl)-3-(3-(trifluoromethyl)-[1,2,4]triazolo[4,3-a]pyridin-7-yl)propanoic Acid]",16200,298
"Cc1ccc([C@@H](CC(=O)O)c2ccc3c(nnn3C3CC3)c2C)cc1CN1C[C@@H]2COCCN2c2ncccc2S1(=O)=O (single isomer, unassigned) [Example 25, (*R)-3-(1-Cyclopropyl-4-methyl-1H-benzo[d][1,2,3]triazol-5-yl)-3-(3-(((*R)-5,5-dioxido-7a,8,10,11-tetrahydro-[1,4]oxazino[3,4-d]pyrido[2,3-f][1,2,5]thiadiazepin-6(7H)-yl)methyl)-4-methylphenyl)propanoic Acid]",21,2.12
"Cc1ccc([C@H](c2ccn3c(C(F)(F)F)nnc3c2C)C(C)(C)C(=O)O)cc1CN1CC2(CCOCC2)Oc2nc(NCCN3CCOCC3)c(C)cc2S1(=O)=O (single isomer, unassigned) [Example 365, (*R)-2,2-Dimethyl-3-(4-methyl-3-((8′-methyl-7′-((2-morpholinoethyl)amino)-1′,1′-dioxido-2,3,5,6-tetrahydrospiro[pyran-4,4′-pyrido[2,3-b][1,4,5]oxathiazepin]-2′(3′H)-yl)methyl)phenyl)-3-(8-methyl-3-(trifluoromethyl)-[1,2,4]triazolo[4,3-a]pyridine-7-yl)propanoic Acid]",23.9,< 1
"CCc1nnc2c(C)c([C@H](CC(=O)O)c3ccc(C)c(CN4C[C@H]5CCCN5c5ncccc5S4(=O)=O)c3)ccn12 (single isomer, unassigned) [Example 283, (*R)-3-(3-(((R)-5,5-dioxido-7a,8,9,10-tetrahydropyrido[2,3-f]pyrrolo[2,1-d][1,2,5]thiadiazepin-6(7H)-yl)methyl)-4-methylphenyl)-3-(3-ethyl-8-methyl-[1,2,4]triazolo[4,3-a]pyridin-7-yl)propanoic Acid]",4170,< 1
"Cc1cnc2c(c1)S(=O)(=O)N(Cc1cc([C@H](c3ccn4c(C(F)F)nnc4c3C)C(C)(C)C(=O)O)ccc1C)CC1(CC1)O2 (single isomer, unassigned) [Example 561, (*R)-3-(3-(Difluoromethyl)-8-methyl-[1,2,4]triazolo[4,3-a]pyridin-7-yl)-2,2-dimethyl-3-(4-methyl-3-((8′-methyl-1′,1′-dioxidospiro[cyclopropane-1,4′-pyrido[2,3-b][1,4,5]oxathiazepin]-2′(3′H)-yl)methyl)phenyl)propanoic Acid]",258,52.5
"CCn1nnc2c(C)c(C(CC(=O)O)c3ccc(C)c(CN4CC5(CCOCC5)Oc5ccc(F)cc5S4(=O)=O)n3)ccc21 (single isomer, unassigned) [Example 419, (*R)-3-(1-ethyl-4-methyl-1H-benzo[d][1,2,3]triazol-5-yl)-3-(6-((8-fluoro-1,1-dioxido-2′,3′,5′,6′-tetrahydrospiro[benzo[b][1,4,5]oxathiazepine-4,4′-pyran]-2(3H)-yl)methyl)-5-methylpyridin-2-yl)propanoic Acid]",4.15,< 1
"Cc1cnc2c(c1)S(=O)(=O)N(Cc1cc([C@@H](c3ccc4c(nnn4C4CC4)c3C)C(C)(C)C(=O)O)cnc1C)CC1(CC1)O2 (single isomer, unassigned) [Example 395, (*S)-3-(1-Cyclopropyl-4-methyl-1H-benzo[d][1,2,3]triazol-5-yl)-2,2-dimethyl-3-(6-methyl-5-((8′-methyl-1′,1′-dioxidospiro[cyclopropane-1,4′-pyrido[2,3-b][1,4,5]oxathiazepin]-2′(3′H)-yl)methyl)pyridin-3-yl)propanoic Acid]",15.7,< 1
"Cc1ccc([C@H](CC(=O)O)c2ccn3c(C(F)(F)F)nnc3c2C)cc1CN1C[C@@H]2CCN2c2ncccc2S1(=O)=O (single isomer, unassigned) [Example 292, (*S)-3-(3-(((*S)-5,5-Dioxido-7,7a,8,9-tetrahydro-6H-azeto[2,1-d]pyrido[2,3-f][1,2,5]thiadiazepin-6-yl)methyl)-4-methylphenyl)-3-(8-methyl-3-(trifluoromethyl)-[1,2,4]triazolo[4,3-a]pyridin-7-yl)propanoic Acid]",68.3,< 1
"CCn1nnc2c(C)c([C@H](CC(=O)O)c3ccc(C)c(CN4CC5(CCOCC5)Oc5ccc(F)cc5S4(=O)=O)n3)ccc21 (single isomer, unassigned) [Example 418, (*S)-3-(1-ethyl-4-methyl-1H-benzo[d][1,2,3]triazol-5-yl)-3-(6-((8-fluoro-1,1-dioxido-2′,3′,5′,6′-tetrahydrospiro[benzo[b][1,4,5]oxathiazepine-4,4′-pyran]-2(3H)-yl)methyl)-5-methylpyridin-2-yl)propanoic Acid]",0.96,< 1
"Cc1ccc([C@H](c2ccn3c(C(F)(F)F)nnc3c2C)C(C)(C)C(=O)O)cc1CN1CC2(CCOCC2)Oc2nc(CCC(=O)NCCO)ccc2S1(=O)=O (single isomer, unassigned) [Example 128, (*R)-3-(3-((7′-(3-((2-Hydroxyethyl)amino)-3-oxopropyl)-1′,1′-dioxido-2,3,5,6-tetrahydrospiro[pyran-4,4′-pyrido[2,3-b][1,4,5]oxathiazepin]-2′(3′H)-yl)methyl)-4-methylphenyl)-2,2-dimethyl-3-(8-methyl-3-(trifluoromethyl)-[1,2,4]triazolo[4,3-a]pyridine-7-yl)propanoic Acid]",308,< 1
Cc1ccc(C(CC(=O)O)c2ccc3c(nnn3C)c2C(F)F)cc1CN1CC2CCCN2c2ncccc2S1(=O)=O (centres unmarked) [Example 71],1160,2.6
"Cc1ccc([C@@H](c2ccn3c(C(F)(F)F)nnc3c2C)C(C)(C)C(=O)O)cc1CN1CC2(COC2)Oc2ncccc2S1(=O)=O (single isomer, unassigned) [Example 615, (*S)-3-(3-((1′,1′-dioxidospiro[oxetane-3,4′-pyrido[2,3-b][1,4,5]oxathiazepin]-2′(3′H)-yl)methyl)-4-methylphenyl)-2,2-dimethyl-3-(8-methyl-3-(trifluoromethyl)-[1,2,4]triazolo[4,3-a]pyridine-7-yl)propanoic Acid]",1.09,< 1
